These are literature values, as cited in patent US20090255536A1, “Biofilm-Inhibiting Catheters and Tubings” (priority 2008, published 2009).

Series [1] concerns Group B Streptococcus. Conditions: topical exogenous gNO at 200 ppm for extended periods of time.
In series [2] the test system is S. aureus and P. aeruginosa. The settings on record: exogenous gNO at 200 ppm.
Series [3] deals with cultured human dermal fibroblasts. The settings on record: gNO at 200 ppm for extended periods of time.
Series [4] deals with Escherichia coli. Conditions: topical exogenous gNO at 200 ppm for extended periods of time.
For series [5], the system named is Pseudomonas aeruginosa. Conditions: topical exogenous gNO at 200 ppm for extended periods of time.
Series [6] deals with Staphylococcus aureus. Conditions: topical exogenous gNO at 200 ppm for extended periods of time.
The test system of series [7] is Candida albicans. Conditions: topical exogenous gNO at 200 ppm for extended periods of time.

Turning to `[N]=O` [gNO, nitric oxide], the “growth of Group B Streptococcus” value in series [1] was “inhibited and prevented the growth”. Also, in series [2], the “time to clear nosocomial pneumonia caused by microbial pathogens” value was “about 6 hours”. In addition, the “cytotoxic effects on cultured human dermal fibroblasts” value in series [3] is given as “without any cytotoxic effects”. Besides, in series [4], the “growth of Escherichia coli” value is “inhibited and prevented the growth”. In series [5], the “growth of Pseudomonas aeruginosa” value was “inhibited and prevented the growth”. Besides, the “growth of Staphylococcus aureus” value in series [6] is “inhibited and prevented the growth”. Besides, in series [7], the “growth of Candida albicans” value is “inhibited and prevented the growth”.
